# Experimental data reported in US8293770B2, “Pyrrolidine derivatives as NK-3 receptor antagonists” (Hoffmann-La Roche Inc., priority 2008, dated 2012).
# Molecular target: T1, recombinant human NK3 receptor (Homo sapiens, UniProt P29371)
# T1 construct: expressed in transfected cells; host or cells: HEK293 cells (transient expression), membranes
# T1 sequence (P29371 1-465): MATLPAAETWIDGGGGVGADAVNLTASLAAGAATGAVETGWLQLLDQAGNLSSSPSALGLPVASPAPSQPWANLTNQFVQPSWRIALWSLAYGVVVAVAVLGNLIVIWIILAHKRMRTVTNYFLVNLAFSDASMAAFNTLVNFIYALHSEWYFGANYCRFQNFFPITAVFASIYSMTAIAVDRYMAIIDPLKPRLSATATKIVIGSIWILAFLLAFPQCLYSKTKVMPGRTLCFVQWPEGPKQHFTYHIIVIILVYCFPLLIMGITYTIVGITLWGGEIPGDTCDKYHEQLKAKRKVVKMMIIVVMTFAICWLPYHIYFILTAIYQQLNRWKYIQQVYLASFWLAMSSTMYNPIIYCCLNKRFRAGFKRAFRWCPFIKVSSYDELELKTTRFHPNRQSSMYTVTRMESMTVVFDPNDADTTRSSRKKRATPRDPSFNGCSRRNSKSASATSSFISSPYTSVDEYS
# Assay: [3H]SR142801 competition binding assay
# Conditions: hNK3 receptor binding, [3H]SR142801, membranes from HEK293 cells transiently expressing recombinant human NK3 receptor
# Method: [^3H]SR142801 competition binding assay
# hNK3 receptor binding experiment were performed using [^3H]SR142801 (Catalog No. TRK1035, specific activity: 74.0 Ci/mmol, Amersham, GE Healthcare UK limited, Buckinghamshire, UK) and membrane isolated from HEK293 cells transiently expressing recombinant human NK3 receptor. After thawing, the membrane homogenates were centrifuged at 48,000×g for 10 min at 4° C., the pellets were resuspended in the 50 mM Tris-HCl, 4 mM MnCl2, 1 μM phosphoramidon, 0.1% BSA binding buffer at pH 7.4 to a final assay concentration of 5 μg protein/well. […] At the end of the incubation, membranes were filtered onto unitfilter (96-well white microplate with bonded GF/C filter preincubated 1 h in 0.3% PEI+0.3% BSA, Packard BioScience, Meriden, Conn.) with a Filtermate 196 harvester (Packard BioScience) and washed 4 times with ice-cold 50 mM Tris-HCl, pH 7.4 buffer. Nonspecific binding was measured in the presence of 10 μM SB222200 for both radioligands. The radioactivity on the filter was counted (5 min) on a Packard Top-count microplate scintillation counter with quenching correction after addition of 45 μl of microscint 40 (Canberra Packard S. A., Zürich, Switzerland) and shaking for 1 h. Inhibition curves were fitted according to the Hill equation: y=100/(1+(x/IC50)^nH), where nH=slope factor using Excel-fit 4 software (Microsoft). IC50 values were derived from the inhibition curve and the affinity constant (Ki) values were calculated using the Cheng-Prussoff equation Ki=IC50/(1+[L]/KD) where [L] is the concentration of radioligand and KD is its dissociation constant at the receptor, derived from the saturation isotherm. All experiments were performed in duplicate and the mean±standard error (SEM) of the individual Ki values was calculated.
row,Compound,Ki [nM]
1,"CN(Cc1ccc(C(F)(F)F)c(F)c1)[C@H]1CN(C(=O)c2cc(S(C)(=O)=O)ccc2F)C[C@@H]1c1ccc(Cl)c(Cl)c1 (racemic) [Example 20, {(3SR,4RS)-3-(3,4-Dichloro-phenyl)-4-[(3-fluoro-4-trifluoromethyl-benzyl)-methyl-amino]-pyrrolidin-1-yl}-(2-fluoro-5-methanesulfonyl-phenyl)-methanone]",41.7
2,"CN(Cc1ccc(C(F)(F)F)c(F)c1)[C@H]1CN(C(=O)c2ccc(C#N)nc2)C[C@@H]1c1ccc(Cl)c(Cl)c1 (racemic) [Example 26, 5-{(3SR,4RS)-3-(3,4-Dichloro-phenyl)-4-[(3-fluoro-4-trifluoromethyl-benzyl)-methyl-amino]-pyrrolidine-1-carbonyl}-pyridine-2-carbonitrile]",14.8
3,"CN(Cc1ccc(C(F)(F)F)c(F)c1)[C@H]1CN(C(=O)c2ccc(S(C)(=O)=O)cc2)C[C@@H]1c1ccc(Cl)c(Cl)c1 (racemic) [Example 22, {(3SR,4RS)-3-(3,4-Dichloro-phenyl)-4-[(3-fluoro-4-trifluoromethyl-benzyl)-methyl-amino]-pyrrolidin-1-yl}-(4-methanesulfonyl-phenyl)-methanone]",30.2
4,"CN(Cc1ccc(C(F)(F)F)c(F)c1)[C@H]1CN(C(=O)c2cccc(C#N)c2)C[C@@H]1c1ccc(Cl)c(Cl)c1 (racemic) [Example 9, 3-{(3SR,4RS)-3-(3,4-Dichloro-phenyl)-4-[(3-fluoro-4-trifluoromethyl-benzyl)-methyl-amino]-pyrrolidine-1-carbonyl}-benzonitrile]",47.4
5,"Cc1cc(C(=O)N2C[C@H](c3ccc(Cl)c(Cl)c3)[C@@H](N(C)Cc3ccc(C(F)(F)F)c(F)c3)C2)ccc1C#N (racemic) [Example 23, 4-{(3SR,4RS)-3-(3,4-Dichloro-phenyl)-4-[(3-fluoro-4-trifluoromethyl-benzyl)-methyl-amino]-pyrrolidine-1-carbonyl}-2-methyl-benzonitrile]",6.6
6,"CN(Cc1ccc(C(F)(F)F)c(F)c1)[C@H]1CN(C(=O)c2ccc(-n3cccn3)nc2)C[C@@H]1c1ccc(Cl)c(Cl)c1 (racemic) [Example 30, {(3SR,4RS)-3-(3,4-Dichloro-phenyl)-4-[(3-fluoro-4-trifluoromethyl-benzyl)-methyl-amino]-pyrrolidin-1-yl}-(6-pyrazol-1-yl-pyridin-3-yl)-methanone]",2.8
7,"COc1ccc(C(=O)N2C[C@H](c3ccc(Cl)c(Cl)c3)[C@@H](N(C)Cc3ccc(C(F)(F)F)c(F)c3)C2)cn1 (racemic) [Example 29, {(3SR,4RS)-3-(3,4-Dichloro-phenyl)-4-[(3-fluoro-4-trifluoromethyl-benzyl)-methyl-amino]-pyrrolidin-1-yl}-(6-methoxy-pyridin-3-yl)-methanone]",8.4
8,"CN(Cc1ccc(C(F)(F)F)c(F)c1)[C@H]1CN(C(=O)c2ccc(N3CCOCC3)nc2)C[C@@H]1c1ccc(Cl)c(Cl)c1 (racemic) [Example 27, {(3SR,4RS)-3-(3,4-Dichloro-phenyl)-4-[(3-fluoro-4-trifluoromethyl-benzyl)-methyl-amino]-pyrrolidin-1-yl}-(6-morpholin-4-yl-pyridin-3-yl)-methanone]",5.7
9,"CN(Cc1ccc(C(F)(F)F)c(F)c1)[C@H]1CN(C(=O)c2ccc(C#N)cc2)C[C@@H]1c1ccc(Cl)c(Cl)c1 (racemic) [Example 6, 4-{(3SR,4RS)-3-(3,4-Dichloro-phenyl)-4-[(3-fluoro-4-trifluoromethyl-benzyl)-methyl-amino]-pyrrolidine-1-carbonyl}-benzonitrile]",20.9
10,"CN(Cc1ccc(C(F)(F)F)c(F)c1)[C@H]1CN(C(=O)c2ccc(F)nc2)C[C@@H]1c1ccc(Cl)c(Cl)c1 (racemic) [Example 28, {(3SR,4RS)-3-(3,4-Dichloro-phenyl)-4-[(3-fluoro-4-trifluoromethyl-benzyl)-methyl-amino]-pyrrolidin-1-yl}-(6-fluoro-pyridin-3-yl)-methanone]",35.6
11,"Cc1ccc(C(=O)N2C[C@H](c3ccc(Cl)c(Cl)c3)[C@@H](N(C)Cc3ccc(C(F)(F)F)c(F)c3)C2)cn1 (racemic) [Example 25, {(3SR,4RS)-3-(3,4-Dichloro-phenyl)-4-[(3-fluoro-4-trifluoromethyl-benzyl)-methyl-amino]-pyrrolidin-1-yl}-(6-methyl-pyridin-3-yl)-methanone]",15.2
12,"CN(Cc1ccc(C(F)(F)F)c(F)c1)[C@H]1CN(C(=O)c2ccc(-n3cncn3)cc2)C[C@@H]1c1ccc(Cl)c(Cl)c1 (racemic) [Example 40, {(3SR,4RS)-3-(3,4-Dichloro-phenyl)-4-[(3-fluoro-4-trifluoromethyl-benzyl)-methyl-amino]-pyrrolidin-1-yl}-(4-[1,2,4]triazol-1-yl-phenyl)-methanone]",2.7

# More lines, now with the values ahead:
row,Ki [nM],Compound
1,17.3,"CN(Cc1ccc(C(F)(F)F)c(F)c1)[C@H]1CN(C(=O)c2ccc3nc[nH]c3c2)C[C@@H]1c1ccc(Cl)c(Cl)c1 (racemic) [Example 60, (3H-Benzoimidazol-5-yl)-{(3SR,4RS)-3-(3,4-dichloro-phenyl)-4-[(3-fluoro-4-trifluoromethyl-benzyl)-methyl-amino]-pyrrolidin-1-yl}-methanone]"
2,4.5,"CN(Cc1ccc(C(F)(F)F)c(F)c1)[C@H]1CN(C(=O)c2ccc(-c3cnco3)cc2)C[C@@H]1c1ccc(Cl)c(Cl)c1 (racemic) [Example 67, {(3SR,4RS)-3-(3,4-Dichloro-phenyl)-4-[(3-fluoro-4-trifluoromethyl-benzyl)-methyl-amino]-pyrrolidin-1-yl}-(4-oxazol-5-yl-phenyl)-methanone]"
3,47.8,"CN(Cc1ccc(C(F)(F)F)c(F)c1)[C@H]1CN(C(=O)c2ccc(O)nc2)C[C@@H]1c1ccc(Cl)c(Cl)c1 (racemic) [Example 48, {(3SR,4RS)-3-(3,4-Dichloro-phenyl)-4-[(3-fluoro-4-trifluoromethyl-benzyl)-methyl-amino]-pyrrolidin-1-yl}-(6-hydroxy-pyridin-3-yl)-methanone]"
4,2,"CN(Cc1ccc(C(F)(F)F)c(F)c1)[C@H]1CN(C(=O)c2ccc(N3CCS(=O)(=O)CC3)nc2)C[C@@H]1c1ccc(Cl)c(Cl)c1 (racemic) [Example 64, {(3SR,4RS)-3-(3,4-Dichloro-phenyl)-4-[(3-fluoro-4-trifluoromethyl-benzyl)-methyl-amino]-pyrrolidin-1-yl}-[6-(1,1-dioxo-1-6-thiomorpholin-4-yl)-pyridin-3-yl]-methanone]"
5,2.3,"CN(Cc1ccc(C(F)(F)F)c(F)c1)[C@H]1CN(C(=O)c2ccc(-c3nnco3)cc2)C[C@@H]1c1ccc(Cl)c(Cl)c1 (racemic) [Example 47, {(3SR,4RS)-3-(3,4-Dichloro-phenyl)-4-[(3-fluoro-4-trifluoromethyl-benzyl)-methyl-amino]-pyrrolidin-1-yl}-(4-[1,3,4]oxadiazol-2-yl-phenyl)-methanone]"
6,31.8,"CN(Cc1ccc(C(F)(F)F)c(F)c1)[C@H]1CN(C(=O)c2ccc3nn[nH]c3c2)C[C@@H]1c1ccc(Cl)c(Cl)c1 (racemic) [Example 59, (3H-Benzotriazol-5-yl)-{(3SR,4RS)-3-(3,4-dichloro-phenyl)-4-[(3-fluoro-4-trifluoromethyl-benzyl)-methyl-amino]-pyrrolidin-1-yl}-methanone]"
7,10.7,"CN(Cc1ccc(C(F)(F)F)c(F)c1)[C@H]1CN(C(=O)c2ccc(-n3ccnc3)cc2)C[C@@H]1c1ccc(Cl)c(Cl)c1 (racemic) [Example 41, {(3SR,4RS)-3-(3,4-Dichloro-phenyl)-4-[(3-fluoro-4-trifluoromethyl-benzyl)-methyl-amino]-pyrrolidin-1-yl}-(4-imidazol-1-yl-phenyl)-methanone]"
8,14.6,"CN(Cc1ccc(C(F)(F)F)cc1)[C@H]1CN(C(=O)c2ccc(C#N)cc2)C[C@@H]1c1ccc(Cl)c(Cl)c1 (racemic) [Example 68, 4-{(3SR,4RS)-3-(3,4-Dichloro-phenyl)-4-[methyl-(4-trifluoromethyl-benzyl)-amino]-pyrrolidine-1-carbonyl}-benzonitrile]"
9,5.1,"CN(Cc1ccc(C(F)(F)F)c(F)c1)[C@H]1CN(C(=O)c2ccc(-c3ccccn3)cc2)C[C@@H]1c1ccc(Cl)c(Cl)c1 (racemic) [Example 43, {(3SR,4RS)-3-(3,4-Dichloro-phenyl)-4-[(3-fluoro-4-trifluoromethyl-benzyl)-methyl-amino]-pyrrolidin-1-yl}-(4-pyridin-2-yl-phenyl)-methanone]"
